This note sets out measurements from patent publication US20120046273A1, “COMPOUNDS AND COMPOSITIONS FOR COGNITION-ENHANCEMENT, METHODS OF MAKING, AND METHODS OF TREATING” (MITHRIDION, INC., priority 2009, published 2012).

Series [1] in a line: Brain concentrations in rats after oral gavage. In kind it is in vivo, rat. Particulars: rat, 10 mg/kg po, relative to MCD-386. The procedure: Long-Evans Hooded rats (Charles River: male, 250-350 g) were dosed with solutions of test compounds in PBS by oral gavage. At the desired time after dosing, the animals were anesthetized with isoflurane, and then euthanized by cervical dislocation. Blood was obtained by cardiac puncture, transferred to a 1.5 mL microcentrifuge tube containing 15U Heparin, and the plasma recovered after centrifugation. Brains were dissected, weighed, immediately chilled to 4° C., and homogenized using a PowerGen 125 homogenizer in five volumes of ice-cold 2% formic acid. Proteins were precipitated from plasma and brain homogenate with two and five volumes respectively of ice-cold 2% formic acid and clarified by centrifugation. The supernatant was ultra-filtered by centrifugation through a 3K MWCO spin column (Pall Life Sciences), following the manufacturer's instructions. The concentration of compound in the ultra-filtrate was subjected to reverse-phase liquid chromatography using a 150×2.1 mm Agilent C8 reverse-phase column on a Shimadzu Prominence LC, eluting the compounds with a gradient of 2% to 50% of acetonitrile+0.1% formic acid for compound MI-50,382, or an isocratic flow of 2% acetonitrile+0.1% formic acid for the rest of the compounds listed. The concentration of the compound in the column effluent was measured using an Applied Biosystems API-3200 triple quadrupole mass spectrometer equipped with an electrospray sample injection system. The counts of the characteristic parent and product ions of each test compound were converted to concentration units by comparison with a standard calibration curve.

Series [2] in a line: Metabolites in serum and urine of dosed rats (LC-MS). Format: in vivo. As to conditions: rat serum/plasma or urine, oral dosing. The procedure:
Oxadiazoles disclosed herein as well as other oxadiazoles were investigated to determine the formation of metabolites. Animals were dosed, blood taken, serum prepared, serum proteins precipitated and ultrafiltrates prepared as described in Example 6. In separate experiments, urine was collected from rats for 16-24 hours after dosing, using standard metabolic cages. The urine container and collected urine were maintained at 4° C. Urine was lyophilized, taken back into water. The ultrafiltrate was prepared by adding formic acid to a final concentration of 1% to the urine samples, then filtered through a 0.2 um nylon membrane. The ultrafiltrate was subjected to LC-MS analysis. Instead of measuring the product ions in Q3, manual Q1 scans of the liquid chromatograph were undertaken, seeking parent ions of potential metabolites of the compounds. The criteria for identifying metabolites were as follows: (1) the ion should be present in the sera or urines of dosed rats, but not in sera or urines from non-dosed rats (2) the ion should be identifiable as a metabolic derivative of the dosed compound (e.g. loss of a functional chemical moiety, addition of a hydroxyl group or a glucuronic acid moiety, etc). Metabolites were determined not to be present if no compound meeting the above criteria could be detected in serum or urine.

Series [3] in a line: Plasma concentration in rats, iontophoresis patch versus oral gavage. In kind it is in vivo. As to conditions: Long Evans Hooded, rat. The text has this: Two patches were made up, consisting (in order from the outer layer to the skin contacting surface, respectively): adhesive tape (Transpore, 27 mm wide, 3M), circular stainless steel electrodes (22 mm dia) with a central hole for a stainless steel machine screw to which the electrode wire was attached, and 2 layers of 3MM CHR filter paper (Cat #3030-861, Whatman International, Ltd).
The mid-dorsal area of a Long Evans Hooded rat (approximate weight, 320 grams), surgically prepared with a jugular vein catheter (Charles River), was shaved and the skin was then cleaned using an Electrode Prep Pad (Professional Disposables, Inc, Cat #B59800). […]
Blood (400 μl) was withdrawn from the catheters in each rat every 30 minutes, transferred to 1.5 ml centrifuge tubes containing heparin (15 units/tube), and the plasma was separated by centrifugation from the cellular components. The plasma samples were maintained at 4 deg C. until analyzed. […]
The ultra-filtrates were subjected to reverse-phase liquid chromatography using a 150×2.1 mm Agilent C8 reverse-phase column on a Shimadzu Prominence LC, eluting the MCD-386 with an isocratic flow of 2% acetonitrile+0.1% formic acid. The concentration of MCD-386 in the column effluent was measured using an Applied Biosystems API-3200 triple quadrupole mass spectrometer equipped with a Turbo V source (electrospray sample injection) system. […]

For series [4], the system named is apomorphine induced climbing. Description: Apomorphine induced climbing model of psychosis. Particulars: mice, sc. Format: in vivo, CD-I mice. The procedure:
As described in Costall et. al. European Journal of Pharmacology 1978, 50, 39. individual CD-I mice, 1-2 months old, were placed in a cylindrical wire mesh cage (13.2 cm high×13.2 cm diameter) constructed of steel wire 1 mm thick spaced at 1.2 cm^2. Cylinders were placed in a standard OptiMICE mouse cage (29×32×9×29 cm wide and 14 cm high) with adequate wood chip bedding provided. Observations of climbing (defined as 3 or more paws off the ground) were carried out every 5 minutes at a duration of 1 minute for 30 minutes. Animals were injected subcutaneously under isoflurane anesthesia with test compounds, reference compounds, which included clozapine, haloperidol, olanzapine and xanomeline, or PBS as a control. This was followed 5 minutes later by 2 mg/kg apomorphine hydrochloride. All drugs were dissolved in PBS or a mixture of (by volume) 96% PBS and 4% hydroxypropyl-beta-cyclodextrin, and dosed at a rate of 5 ml per kilogram of body weight. Following injections, animals were replaced in the mesh cages and observed for climbing (defined as 3 or more paws off the ground) every 5 minutes for a duration of 1 minute for 60 minutes after dosing.

Series [5] in a line: Brain/plasma concentration ratio after oral dosing to rats. As to conditions: rat.
Series [6] is described as follows: Serum pharmacokinetics of immediate release capsules in human subjects. Particulars: male; for Cmax / half-life: oral. Format: in vivo. The procedure:
The hydrochloride salt of MCD-386 (“MCD-386 HCl”) was formulated with the following excipients and loaded into #3 hard gelatin capsules (5mg dose) or #2 hard gelatin capsules (0.2 mg dose).
(§1) A single 5 mg capsule or 5×0.2 mg capsules (1 mg total dose) were administered orally to healthy male volunteer human subjects with 125 ml of water. Six such subjects receiving the 5 mg dose, and a different 6 subjects received the 1 mg dose.
Venous blood samples were drawn at various intervals after dosing from each subject into standard tubes for bioanalytical and pharmacokinetic analysis. The blood was allowed to clot, and the serum separated, using common clinical laboratory techniques. Serum samples were stored at −20 deg C. until used for analysis.
MCD-386 HCl, which exists in serum principally as the protonated form of MCD-386, was assayed in clinical serum samples as follows. 200 μL aliquots of serum samples were spiked with 50.0 μL of diluent for subject samples and QC samples and 50 μL of the appropriate intermediate standard solution for standards. Twenty five microliters (25.0 μL) of working internal standard stock solution and 40.0 μL of 10 N sodium hydroxide was then added and the samples were vortex mixed. Three milliliters (3.00 mL) of ethyl acetate was added followed by 5 minutes of vigorous vortexing and centrifugation. The top organic layer was transferred to a clean tube, evaporated to dryness, and the sample was reconstituted with 100 μL of diluent (0.1% formic acid). A 10 μL aliquot of this reconstituted sample was injected into Phenomenex Synergy 4 μ POLAR-RP, 75×2.0 mm (P/N 00C-4336-B0) on a Waters Acuity UPLC LC system, and eluted using a gradient of from 12% to 90% acetonitrile containing 0.1% formic acid/0.1% formic acid in water. The eluant flow of the LC was injected by Turbo Ion Spray (positive ion) into a Sciex API 4000 (Applied Biosystems). The MS/MS transitions monitored were 181.1 m/z to 111.0 m/z for MCD-386 HCl and 186.1 m/z to 111.1 m/z for the internal standard, D5- MCD-386 HCl. The calibration curve was linear between 0.100 ng/mL and 50.0 ng/mL for MCD-386 HCl. The lower limit of quantitation (LLOQ) was 0.100 ng MCD-386 HCl per mL of serum. MCD-386 HCl concentrations are expressed as free base.
The bioanalytical results were analyzed using Win Nonlin software and common pharmacokinetic methods known to those skilled in the art.

Series [7] has as its system healthy male volunteer human subjects. Description: Cholinergic side effects of immediate release capsules in human subjects. Format: in vivo. The procedure:
as §1
Subjects were monitored, among other things, for typical signs of muscarinic cholinergic action, such as increased salivation, lachrimation and diaphoresis.

A short description of series [8]: Metabolites in human serum samples. Format: in vivo. As to conditions: 5mg dose cohort. Here is the method: The bioanalytical method for the extraction of metabolites from serum samples entailed adding 450 uL of a 90% acetonitrile +0.1% formic acid solution to 50 uL of the serum samples. The samples were vortexed and centrifuged at 16,000×g at 4° C. for 10 minutes. The supernatants were transferred to 3K molecular weight cut-off (MWCO) spin filters (Pall, Nanosep, #82031-346). Samples were filtered by centrifugation at 13,000×g at 4° C. for 20 minutes. The filtrates were transferred to a 96-well plate and sealed for LC/MS/MS analysis. The system used for this analysis was a Shimadzu Prominence HPLC system. […] The autosampler was maintained at 4° C. Injection volumes for all samples and standards were 40 uL. MRM methods for two possible metabolites were made. An API 3200 triple-quadrupole mass spectrometer with a Turbo V source (Applied Biosystems) was used, following commonly used procedures which would be readily set up by a person skilled in the art of LC-MS/MS. The counts of the characteristic parent and product ions of the free base metabolites were converted to concentration units by comparison with a standard calibration curve.

One may read the Kp as tissue or fluid exposure divided by exposure in the circulation. The term Cmax denotes the highest concentration seen after dosing. A word on the Tmax: it is the time at which the peak concentration occurs. As usually defined, the half-life is how long it takes for the measured level to halve.

SMILES strings stand for the structures. Structures can show the parent of a compound that is named as a salt. Where two headings read alike, the source gives them in different places.

In the case of `CCc1noc(C2CN=CNC2)n1` (stereo not drawn) [Compound 18, 3-ethyl-5-(1,4,5,6-tetrahydropyrimidin-5-yl)-1,2,4-oxadiazole], the “Brain Cmax (10 mg/kg po) MCD-386 = 1.00” value in [1] came out at 1.00. In addition, the “Presence of metabolites (10 mg/kg po)” value in series [2] is on record as “Yes”. Moreover, the concentration at 30 minutes in series [3] (other: iontophoresis patch (transdermal), 3.2 mg/kg, iontophoresis patch, dose 3.2 mg/kg) is around 850 nM; in series [3] (po, 10 mg/kg, oral gavage), 911 nM. The “activity in the apomorphine induced climbing model” value in [4] is “inactive”. Also, in “PAMPA test”, the “PAMPA (? × 106)” value is given as 0.05 ? × 106. Moreover, the Kp at 1 hour in [5] was 0.07 to 0.13.
`CCc1noc(C2CN=CNC2)n1` (stereo not drawn) [MCD-386 HCl, 5-(3-ethyl-1,2,4-oxadiazol-5-yl)-1,4,5,6-tetrahydropyrimidine]: the Cmax in series [6] (6 subjects receiving 1 mg of MCD-386 HCl) is at most 8 ng/mL; in [6] (6 subjects receiving 5 mg of MCD-386 HCl), 7.9 to 25.2 ng/mL. Further, in series [6] (oral immediate release capsules), the Tmax was in the range of 1 to 1.5 h. Besides, the half-life in series [6] (0.2 mg, cohort of 6 subjects receiving 0.2 mg, +/- SD, read-out: mean half-life (converted)) is 1.2 h; in [6] (1 mg, 1 mg cohort, +/- SD, read-out: half-life of the free base (converted)), 1.44 h; in [6] (5 mg, 5 mg cohort excluding one subject, read-out: mean half-life for the other 5 subjects (converted)), 1.44 h; in series [6] (5 mg, 5 mg cohort, +/- SD, read-out: half-life of the free base (converted)), 1.71 h; in [6] (5 mg, 5 mg cohort, subject with the longest half-life, read-out: half-life in one subject (converted)), 2.93 h. Further, in [7] (1 mg total dose cohort, 6 subjects), the “observable cholinergic side effects” value is on record as “none of the subjects”. Also, in [7] (5 mg cohort), the “subjects with mild hypersalivation” value was “One”. For the same compound, in series [7] (5 mg cohort), the “subjects with mild, transient diaphoresis” value was “Two”. Also, in series [7] (5 mg cohort), the “subjects with moderate diaphoresis” value was “two”. Moreover, in series [7] (5 mg cohort, 6 subjects), the “signs of muscarinic cholinergic activity” value is reported as “four subjects showed signs of muscarinic cholinergic activity”. Moreover, in [8], the “main metabolite of the free base identified in serum samples” value is given as “five out of six subjects”.
